In paper PMC8248988, “A signal capture and proofreading mechanism for the KDEL-receptor explains selectivity and dynamic range in ER retrieval” (eLife, 2021):

Experiments:
[1] = tested on: BIP and PDI, ERP72 and ERP44; assay: ER chaperone secretion assay, all four chaperones; assay type: cell-based, human; conditions: HeLa S3 cells
From the text: Figure 1. ER retrieval signal abundance and affinity are not correlated. (a) Sequence logos for ER resident proteins with C-terminal KDEL retrieval signals and variants thereof calculated using frequency or protein abundance ([Itzhak et al., 2017]; [Itzhak et al., 2016]). (b) Combined cellular concentrations of ER resident proteins with canonical KDEL, RDEL, and HDEL retrieval sequences in HeLa cells and mouse brain. (c) Competition binding assays for [^3H]-TAEHDEL and unlabelled TAEKDEL, TAERDEL, and TAEHDEL to the KDEL receptor. IC50 values for the competing peptides were used to calculate the apparent KDwith the Cheng-Prusoff equation ([Cheng and Prusoff, 1973]). (d) Endogenous KDEL receptor redistribution was measured in COS-7 cells in the absence (-ligand) or presence of K/R/H/A/DDEL (mScarlet-xDEL^sec). TGN46 was used as a Golgi marker. Scale bar is 10 µm. […] The individual data points for the fraction of KDEL receptor fluorescence in the Golgi are plotted on the upper axes with sample sizes and p values. […] Endogenous ER chaperone secretion was measured by western blotting after challenge with different retrieval signals, and plotted as a bar graph showing mean ± SEM (n = 3). […] (a) Distribution of human KDELR1 and (b) KDELR2 was measured in COS-7 cells in the absence (-ligand) or presence of K/R/H/A/DDEL retrieval signals (K/R/H/A/DDEL^sec). […]

[2] = tested on: BIP; assay: ER chaperone secretion assay, BIP; assay type: cell-based, human
From the text: Figure 1. ER retrieval signal abundance and affinity are not correlated. (a) Sequence logos for ER resident proteins with C-terminal KDEL retrieval signals and variants thereof calculated using frequency or protein abundance ([Itzhak et al., 2017]; [Itzhak et al., 2016]). (b) Combined cellular concentrations of ER resident proteins with canonical KDEL, RDEL, and HDEL retrieval sequences in HeLa cells and mouse brain. (c) Competition binding assays for [^3H]-TAEHDEL and unlabelled TAEKDEL, TAERDEL, and TAEHDEL to the KDEL receptor. IC50 values for the competing peptides were used to calculate the apparent KDwith the Cheng-Prusoff equation ([Cheng and Prusoff, 1973]). (d) Endogenous KDEL receptor redistribution was measured in COS-7 cells in the absence (-ligand) or presence of K/R/H/A/DDEL (mScarlet-xDEL^sec). TGN46 was used as a Golgi marker. Scale bar is 10 µm. (e) The mean difference for K/R/H/A/DDEL comparisons against the shared no ligand control are shown as Cummings estimation plots. The individual data points for the fraction of KDEL receptor fluorescence in the Golgi are plotted on the upper axes with sample sizes and p values. Figure 1—source data 1. Source data for the ligand-induced KDELR receptor retrieval assays in Figure 1e. Figure 1—figure supplement 1. Abundance of ER resident proteins and chaperones in human cells and mouse brain. (a) The mean concentration of ER resident chaperones with the indicated ER retrieval sequence variant is plotted in the bar graph ([Itzhak et al., 2017]; [Itzhak et al., 2016]). […] Endogenous ER chaperone secretion was measured by western blotting after challenge with different retrieval signals, and plotted as a bar graph showing mean ± SEM (n = 3). […] (a) Distribution of human KDELR1 and (b) KDELR2 was measured in COS-7 cells in the absence (-ligand) or presence of K/R/H/A/DDEL retrieval signals (K/R/H/A/DDEL^sec). […] The fraction of KDEL receptor localised to the Golgi was measured before (no ligand) and after challenge with different retrieval signals as indicated. […]

## ADEL [pcDNA3.1 hGHss-mScarlet-H. sapiens BiP639-654K651A (ADEL^SEC), secreted mScarlet fusion with human BiP C-terminus, ADEL signal]
[1]
  effect on ER retention of BIP, PDI, ERP72 and ERP44 (in words): little effect on ER retention
[2]; mean, HeLa S3, 24 hr, Western blot densitometry
  BiP secretion after challenge with retrieval signal: 8.5
[2]; replicate 1
  BiP secretion after challenge with retrieval signal: 15.9
[2]; replicate 2
  BiP secretion after challenge with retrieval signal: 1.1
